The NIST ThermoML archive (doi:10.1021/acs.jced.7b00148)
± gives the expanded uncertainty stated by the source.

Conditions: Liquid; for vapor or sublimation pressure: Closed cell (Static) method; for Critical pressure: Direct measurement; for Critical temperature: Visual observation in an unstirred cell

C=CCCC [1-pentene]
Conditions | Critical pressure [kPa] | Critical temperature [K] | vapor or sublimation pressure [kPa]
– | 3585 ± 26 | 466.59 ± 0.24 | –
297.86 K | – | – | 84 ± 2
327.08 K | – | – | 216 ± 3
336.14 K | – | – | 279 ± 3
346.92 K | – | – | 372 ± 4
356.19 K | – | – | 468 ± 4
356.89 K | – | – | 474 ± 4
366.77 K | – | – | 600 ± 5
377.34 K | – | – | 757 ± 5
387.42 K | – | – | 933 ± 6
394.67 K | – | – | 1085 ± 7
399.61 K | – | – | 1193 ± 7
403.03 K | – | – | 1269 ± 8
411.19 K | – | – | 1472 ± 9
420.96 K | – | – | 1752 ± 10
426.1 K | – | – | 1915 ± 11
436.17 K | – | – | 2255 ± 12
439.5 K | – | – | 2373 ± 13
445.74 K | – | – | 2622 ± 14
452.59 K | – | – | 2902 ± 15
456.52 K | – | – | 3081 ± 16
457.93 K | – | – | 3152 ± 16
460.95 K | – | – | 3294 ± 17
462.87 K | – | – | 3389 ± 17
463.77 K | – | – | 3443 ± 18
466.59 K | – | – | 3585 ± 18

C=C(C)CC [2-methyl-1-butene]
Conditions | Critical pressure [kPa] | Critical temperature [K] | vapor or sublimation pressure [kPa]
– | 3652 ± 26 | 467.9 ± 0.24 | –
299.27 K | – | – | 85 ± 2
323.65 K | – | – | 190 ± 3
341.18 K | – | – | 312 ± 3
353.77 K | – | – | 431 ± 4
366.06 K | – | – | 579 ± 5
368.18 K | – | – | 608 ± 5
375.63 K | – | – | 717 ± 5
386.21 K | – | – | 898 ± 6
398.5 K | – | – | 1149 ± 7
409.28 K | – | – | 1402 ± 8
419.65 K | – | – | 1695 ± 10
429.02 K | – | – | 1985 ± 11
431.24 K | – | – | 2065 ± 11
438.39 K | – | – | 2316 ± 13
448.46 K | – | – | 2723 ± 14
457.43 K | – | – | 3118 ± 16
460.55 K | – | – | 3271 ± 17
463.37 K | – | – | 3409 ± 17
465.49 K | – | – | 3523 ± 18
467.9 K | – | – | 3652 ± 19

CC=C(C)C [2-methyl-2-butene]
Conditions | Critical pressure [kPa] | Critical temperature [K] | vapor or sublimation pressure [kPa]
– | 3686 ± 26 | 477.47 ± 0.24 | –
307.63 K | – | – | 87 ± 2
325.06 K | – | – | 157 ± 3
340.98 K | – | – | 249 ± 3
350.14 K | – | – | 321 ± 3
364.85 K | – | – | 463 ± 4
372.91 K | – | – | 560 ± 5
380.97 K | – | – | 673 ± 5
389.83 K | – | – | 811 ± 6
397.89 K | – | – | 954 ± 6
408.17 K | – | – | 1167 ± 7
422.67 K | – | – | 1524 ± 9
430.83 K | – | – | 1758 ± 10
439.09 K | – | – | 2021 ± 11
448.36 K | – | – | 2349 ± 13
453.3 K | – | – | 2541 ± 14
454.71 K | – | – | 2600 ± 14
461.46 K | – | – | 2884 ± 15
464.08 K | – | – | 3006 ± 16
470.72 K | – | – | 3327 ± 17
471.73 K | – | – | 3377 ± 17
473.04 K | – | – | 3442 ± 18
475.16 K | – | – | 3556 ± 18
477.47 K | – | – | 3686 ± 19

C=CC(C)C [3-methyl-1-butene]
Conditions | Critical pressure [kPa] | Critical temperature [K] | vapor or sublimation pressure [kPa]
– | 3463 ± 26 | 451.38 ± 0.24 | –
302.9 K | – | – | 140 ± 3
323.75 K | – | – | 264 ± 3
336.44 K | – | – | 374 ± 4
350.65 K | – | – | 533 ± 4
358.2 K | – | – | 635 ± 5
371.6 K | – | – | 855 ± 6
382.88 K | – | – | 1073 ± 7
390.84 K | – | – | 1255 ± 8
399 K | – | – | 1458 ± 9
405.25 K | – | – | 1632 ± 9
413.2 K | – | – | 1874 ± 11
420.56 K | – | – | 2113 ± 12
431.03 K | – | – | 2509 ± 13
439.9 K | – | – | 2885 ± 15
445.14 K | – | – | 3138 ± 16
447.76 K | – | – | 3260 ± 17
450.48 K | – | – | 3407 ± 18
451.38 K | – | – | 3463 ± 18
